Each structure is given as a SMILES string. Values after ≈ are worked out from the molar mass of the structure shown.

Here are results for 8 compounds from patent US7332476B2, “Pyridyl substituted ketolide antibiotics” (Novartis AG, priority 2003, dated 2008).

Test in all cases: MIC, broth microdilution (NCCLS)
In general terms: In broth dilution the organism is exposed to a series of concentrations in liquid medium.

The subject of assay [1] is Streptococcus pneumoniae Stpn_Mef 5654. In kind it is cell-based. The note with it: Table 5, Strain ID J (Table 4): S. pneumoniae Stpn_Mef 5654; in µg/mL (unit assumed). A digest of the protocol:
(§1)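 NCCLS broth microdilution with 2-fold serial drug dilutions (methanol stocks diluted in water); inoculum 3×10^5–7×10^5 CFU/ml in CAMHB, with 2-5% lysed horse blood for S. pneumoniae. Incubation 18-24 h at 35° C., ambient air, except S. pneumoniae (5-10% CO2). MIC is lowest concentration preventing visible growth.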

Assay [2] relates to Streptococcus pneumoniae Stpn_49619. In kind it is cell-based. The settings on record: Table 5, Strain ID E (Table 4): S. pneumoniae Stpn_49619. A digest of the protocol: as §1
Assay [3] concerns S. pneumoniae Stpn_Erm 6849. The assay is classed as cell-based, Streptococcus pneumoniae. The note with it: Table 5, Strain ID H (Table 4): S. pneumoniae Stpn_Erm 6849; unit assumed. The procedure, abridged: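 S. pneumoniae MIC by NCCLS broth microdilution in cation-adjusted Mueller-Hinton broth with 2-5% lysed horse blood, inoculum 3×10^5–7×10^5 CFU/ml, 2-fold drug dilutions. Incubated 18-24 hours at 35° C. in 5-10% CO2; MIC is lowest concentration preventing visible growth.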

The test system of assay [4] is Streptococcus pneumoniae Stpn_280-962. In kind it is cell-based. The note with it: Table 5, Strain ID G (Table 4): S. pneumoniae Stpn_280-962 Pen S. A digest of the protocol: as §1
In assay [5] the test system is E. coli Esco_25922. In kind it is cell-based. The note with it: Table 5, Strain ID M (Table 4): E. coli Esco_25922; unit assumed. As for the experimental part: Strains. The bacterial isolates listed in Table 4 were cultivated from −70° C. frozen stocks by two consecutive overnight passages (P1, P2) at 35° C. on 5% blood agar (Remel, Lenexa, Kans.). Chocolate agar (Remel) is used for Haemophilus influenzae. H. influenzae and Streptococcus pneumoniae are incubated in 5-10% CO2
Drug Stock Preparation. To determine the amount of solvent to be used to give the desired final concentration, the formula “weight obtained in mg/final concentration in mg/ml” will be used. It will give the amount of solvent in ml needed to be added to give the desired concentration. For example, if 2.5 mg/ml is the desired concentration and the weight of compound is 13.7 mg, then the amount of solvent to be added is […]. Methanol is used as the solvent to dissolve the test compounds. Further dilution of stock is done in sterile, deionized water. Drug stocks are kept frozen at −70° C., protected from light.
Susceptibility Testing. MICs are determined by the broth microdilution method in accordance with the NCCLS guidelines. In brief, organism suspensions are adjusted to a 0.5 McFarland standard to yield a final inoculum between 3×10^5 and 7×10^5 CFU/ml. Drug dilutions and inocula are made in sterile, cation adjusted Mueller-Hinton Broth (CAMHB) (Remel) for all but S. pneumoniae [CAMHB with 2-5% lysed horse blood (Remel)] and H. influenzae [Haemophilus Test Medium (Remel)]. An inoculum volume of 100 μl is added to wells containing 100 μl of broth with 2-fold serial dilutions of drug. All inoculated microdilution trays are incubated in ambient air at 35° C. for 18-24 hours, except for S. pneumoniae, and H. influenzae (both at 5-10% CO2).
Following appropriate incubation, the MIC is determined and the MIC is defined as the lowest concentration of the drug that prevented visible growth.

Assay [6] has as its system Streptococcus pneumoniae Stpn_Erm S 4297. The assay is classed as cell-based. The settings on record: Table 5, Strain ID I (Table 4): S. pneumoniae Stpn_Erm S 4297. The procedure, abridged: as §1
Assay [7] relates to Enterococcus faecalis Enfa_29212. The assay is classed as cell-based. The note with it: Table 5, Strain ID C (Table 4): E. faecalis Enfa_29212. A digest of the protocol:
as §1

Assay [8] relates to Streptococcus pneumoniae Stpn_Mef S 3427. In kind it is cell-based. The settings on record: Table 5, Strain ID K (Table 4): S. pneumoniae Stpn_Mef S 3427. The procedure, abridged: as §1
For assay [9], the system named is Staphylococcus epidermidis Step_14990. The assay is classed as cell-based. The note with it: Table 5, Strain ID A (Table 4): S. epidermidis Step_14990; in µg/mL (unit assumed). The procedure, abridged:
as §1

The subject of assay [10] is Haemophilus influenzae Hain_49247. The assay is classed as cell-based. The note with it: Table 5, Strain ID L (Table 4): H. influenzae Hain_49247; unit assumed.
Assay [11] deals with Staphylococcus epidermidis Step_f50654. The assay is classed as cell-based. The note with it: Table 5, Strain ID B (Table 4): S. epidermidis Step_f50654 Pen S; in µg/mL (unit assumed). The procedure, abridged: as §1
The test system of assay [12] is Streptococcus pneumoniae Stpn_297-749. The assay is classed as cell-based. The settings on record: Table 5, Strain ID F (Table 4): S. pneumoniae Stpn_297-749 Pen R. A digest of the protocol:
as §1

In assay [13] the test system is Streptococcus pyogenes Stpy_8668. In kind it is cell-based. The note with it: Table 5, Strain ID D (Table 4): S. pyogenes Stpy_8668. The procedure, abridged:
as §1

Take `CC[C@H]1OC(=O)[C@H](C)C(=O)[C@H](C)[C@@H](OC2O[C@H](C)C[C@H](N(C)C)[C@H]2O)[C@@](C)(OC)C[C@@H](C)C(=O)[C@H](C)[C@@H]2[C@@H]1OC(=O)N2CCCn1cnc(-c2ccccc2)c1` (some centres unmarked) [Compound 4714]: the MIC in assay [1] was 0.4; in [2], “=0.5”; in assay [3], greater than 50 µg/mL; in assay [4] it was “=0.5”; in [5] it was greater than 50 µg/mL; in assay [6] (unit assumed) it was 6.25 µg/mL (≈ 7.98 µM). In addition, the MIC in assay [7] (in µg/mL (unit assumed)) is 0.4; in assay [8] (in µg/mL (unit assumed)), 0.1; in assay [9], 6.25; in [10], greater than 50 µg/mL; in [11], 6.25; in assay [12] it was “=0.5”. This compound yielded an MIC in [13] (unit assumed) of 0.1 µg/mL (≈ 0.128 µM).
Turning to `CC[C@H]1OC(=O)[C@H](C)C(=O)[C@H](C)[C@@H](OC2O[C@H](C)C[C@H](N(C)C)[C@H]2O)[C@@](C)(OC)C[C@@H](C)C(=O)[C@H](C)[C@@H]2[C@@H]1OC(=O)N2CCCn1cnc2cccnc21` (some centres unmarked) [Compound 4716], the MIC in assay [1] is 0.78; in assay [2], “=0.5”; in [3] it was greater than 50 µg/mL; in assay [4], “=0.5”; in assay [5] it was greater than 50 µg/mL; in [6] (unit assumed) it was 25 µg/mL (≈ 33 µM). Besides, the MIC in [7] (in µg/mL (unit assumed)) was 0.78; in assay [8] (in µg/mL (unit assumed)), 0.4; in assay [9], 6.25; in assay [10], 25 µg/mL (≈ 33 µM); in [11], 12.5; in [12], “=0.5”. Also, in [13] (unit assumed), the MIC worked out at 0.1 µg/mL (≈ 0.132 µM).
As to `CC[C@H]1OC(=O)[C@H](C)C(=O)[C@H](C)[C@@H](OC2O[C@H](C)C[C@H](N(C)C)[C@H]2O)[C@@](C)(OC)C[C@@H](C)C(=O)[C@H](C)[C@@H]2[C@@H]1OC(=O)N2CCCCn1ccc2ccccc21` (some centres unmarked) [Compound 4717], the MIC is 0.2 in assay [1]; “=0.5” in [2]; 6.25 µg/mL (≈ 8.12 µM) in assay [3]; “=0.5” in assay [4]; greater than 50 µg/mL in assay [5]; 0.4 µg/mL (≈ 0.519 µM) in assay [6] (unit assumed). Moreover, the MIC is 0.1 in assay [7] (in µg/mL (unit assumed)); “=0.05” in assay [8]; 0.2 in [9]; 6.25 µg/mL (≈ 8.12 µM) in assay [10]; 0.4 in [11]; “=0.5” in [12]. For the same compound, in assay [13], the MIC entry is given as “=0.5”.
Turning to `CC[C@H]1OC(=O)[C@H](C)C(=O)[C@H](C)[C@@H](OC2O[C@H](C)C[C@H](N(C)C)[C@H]2O)[C@@](C)(OC)C[C@@H](C)C(=O)[C@H](C)[C@@H]2[C@@H]1OC(=O)N2CCCCc1ccc2ccccc2n1` (some centres unmarked) [Compound 5960], the MIC in assay [1] is 0.2; in assay [2], “=0.05”; in assay [3] it was 25 µg/mL (≈ 32 µM); in assay [4], “=0.05”; in assay [5], 25 µg/mL (≈ 32 µM); in assay [6] (unit assumed) it was 0.1 µg/mL (≈ 0.128 µM). Besides, the MIC entry in assay [7] is “=0.05”; in assay [8] it was “=0.05”; in [9], 0.2; in assay [10], 3.13 µg/mL (≈ 4 µM); in assay [11] it was 0.2; in assay [12], “=0.05”. Besides, in assay [13], the MIC result is “=0.05”.
As for `CC[C@H]1OC(=O)[C@H](C)C(=O)[C@H](C)[C@@H](OC2O[C@H](C)C[C@H](N(C)C)[C@H]2O)[C@@](C)(OC)C[C@@H](C)C(=O)[C@H](C)[C@@H]2[C@@H]1OC(=O)N2CCCCc1ccnc2ccccc12` (some centres unmarked) [Compound 6220], the MIC in assay [1] is 0.4; in assay [2], “=0.05”; in [3], 3.13 µg/mL (≈ 4 µM); in assay [4] it was “=0.05”; in assay [5] it was 6.25 µg/mL (≈ 7.99 µM); in assay [6] (unit assumed), 0.1 µg/mL (≈ 0.128 µM). Moreover, the MIC entry in assay [7] is “=0.05”; in assay [8] it was “=0.5”; in assay [9] it was 0.1; in assay [10] it was 1.56 µg/mL (≈ 1.99 µM); in [11], 0.1; in assay [12], “=0.05”. The MIC result in assay [13] was “=0.05”.
As for `CC[C@H]1OC(=O)[C@H](C)C(=O)[C@H](C)[C@@H](OC2O[C@H](C)C[C@H](N(C)C)[C@H]2O)[C@@](C)(OC)C[C@@H](C)C(=O)[C@H](C)[C@@H]2[C@@H]1OC(=O)N2CCCCn1cnc(-c2ccccc2)c1` (some centres unmarked) [Compound 6221], the MIC in assay [1] was 0.4; in assay [2] it was “=0.05”; in assay [3] it was 0.1 µg/mL (≈ 0.125 µM); in [4], “=0.05”; in assay [5], 25 µg/mL (≈ 31.4 µM); in assay [6], “=0.05”. In addition, the MIC result was “=0.05” in assay [7]; “=0.05” in [8]; 0.1 in assay [9]; 3.13 µg/mL (≈ 3.93 µM) in assay [10]; 0.1 in assay [11]; “=0.05” in [12]. In addition, the MIC entry in [13] was “=0.05”.
As to `CC[C@H]1OC(=O)[C@H](C)C(=O)[C@H](C)[C@@H](OC2O[C@H](C)C[C@H](N(C)C)[C@H]2O)[C@@](C)(OC)C[C@@H](C)C2=NCCN3C(=O)O[C@H]1[C@H]3[C@H]2C` (some centres unmarked) [Compound 6222], the MIC in [1] was 0.78; in assay [2] (unit assumed), 0.2 µg/mL (≈ 0.321 µM); in assay [3] it was greater than 50 µg/mL; in assay [4] (unit assumed) it was 0.2 µg/mL (≈ 0.321 µM); in assay [5], 50 µg/mL (≈ 80.2 µM); in assay [6] (unit assumed) it was greater than 50 µg/mL. Moreover, the MIC in assay [7] (in µg/mL (unit assumed)) was determined as 0.4; in [8] (in µg/mL (unit assumed)), 0.4; in [9], 1.56; in [10], 25 µg/mL (≈ 40.1 µM); in [11], 1.56; in assay [12] (unit assumed) it was 0.4 µg/mL (≈ 0.641 µM). In assay [13] (unit assumed), this compound had an MIC of 0.2 µg/mL (≈ 0.321 µM).
For the compound `CC[C@H]1OC(=O)[C@H](C)C(=O)[C@H](C)[C@@H](OC2O[C@H](C)C[C@H](N(C)C)[C@H]2O)[C@@](C)(OC)C[C@@H](C)C2=N[C@@H](C)CN3C(=O)O[C@H]1[C@H]3[C@H]2C` (some centres unmarked) [Compound 6223], the MIC in assay [1] was 0.78; in assay [2] (unit assumed) it was 0.2 µg/mL (≈ 0.314 µM); in assay [3] it was greater than 50 µg/mL; in [4] (unit assumed) it was 0.2 µg/mL (≈ 0.314 µM); in assay [5] it was 50 µg/mL (≈ 78.4 µM); in assay [6] (unit assumed), greater than 50 µg/mL. The MIC in assay [7] (in µg/mL (unit assumed)) was 0.78; in assay [8] (in µg/mL (unit assumed)) it was 0.4; in assay [9], 1.56; in assay [10], greater than 50 µg/mL; in assay [11] it was 3.13; in assay [12] (unit assumed) it was 0.2 µg/mL (≈ 0.314 µM). This compound gave an MIC in assay [13] (unit assumed) of 0.2 µg/mL (≈ 0.314 µM).
